Publication PMC3610763 (Chemical research in toxicology, 2012)

Tests used:
[1] = human, in vivo, po; cited from earlier work
[2] = in vivo, cited from earlier work
[3] = rat, in vivo, po, 30 mg/kg; cited from earlier work
[4] = tested on: individual recombinant human P450 enzymes

Structure (SMILES)	formation of G3 from the analogue, versus capsaicin (human liver microsomes)	formation of conjugates equivalent to G1/G2 from the analogue, versus capsaicin (human liver microsomes)	further results
COc1cc(CNC(=O)CCCC/C=C/C(C)C)ccc1O [Capsaicin, trans-8-methyl-N-vanillyl-6-nonenamide]			AUC [1]: ~ 1.7 ng*h/mL; T1/2 [1]: 0.42 h; Tmax [1]: ~ 0.78 h; estimated T1/2 ([2]; human): 1.6 h; time within which capsaicin was cleared in most patients [2]: ≤ 4.5 h; absorption from the intestine [3]: 94%; amount found in intestine [3]: ~ 1,060 mg/tissue; amount found in kidney [3]: ~ 7 mg/tissue; amount found in liver [3]: ~ 45 mg/tissue; peak serum concentration [3]: 6.2 µM
COc1cc(CNC(=O)CCCC/C=C/C(C)C)cc(-c2cc(CNC(=O)CCCC/C=C/C(C)C)cc(OC)c2O)c1O [Dimer, 5,5’-Dicapsaicin]			P450 enzymes producing the conjugate/dimer from capsaicin [4]: CYP2D6, 2C9, and 2C8
CCCCCCCCC(=O)NCc1ccc(O)c(O)c1 [N-(3,4-dihydroxybenzyl)nonanamide]	absent		
CCCCCCCCC(=O)NCc1ccc(OC)c(OC)c1 [N-(3,4-dimethoxybenzyl)nonanamide]	absent	diminished	
CCCCCCCCC(=O)NCc1ccc(OC)c(O)c1 [N-(3-hydroxy-4-methoxybenzyl)nonanamide]	absent	unchanged	
CCCCCCCCC(=O)NCc1cccc(OC)c1 [N-(3-methoxybenzyl)nonanamide]	absent	diminished	
CCCCCCCCC(=O)NCc1ccc(O)cc1 [N-(4-hydroxybenzyl)nonanamide]	greater	increased	
CCCCCCCCC(=O)NCc1ccccc1 [N-benzylnonanamide]	absent	diminished	
CCCCCCCCC(=O)NCc1ccc(O)c(OC)c1 [nonivamide, N-vanillylnonanamide]	comparable to capsaicin	unchanged	G4 and G5 formation from the analogue (human liver microsomes): roughly equivalent to capsaicin
